How the values were obtained:
[1] = tested on: primary cortical neurons; assay: ATP, AMP/ATP ratio and AMPK activity in primary cortical neurons; type: cell-based, Sprague-Dawley rats; details: C75 treatment
Experimental: Cortices were removed from E17 Sprague-Dawley rats (Harlan, Indianapolis, Ind.), and were dissociated by mild trypsinization and trituration as described by Dawson, et al. J Neurosci 13, 2651-2661 (1993). Cells were plated on poly-D-lysine coated plastic Nunclon culture dishes at a density of 5×10^5 cells/cm^2 in Minimum Essential Media (MEM) supplemented with horse serum, fetal bovine serum, glutamine, and the antibiotics gentamycin and kanamycin. […]
Neurons were lysed on ice using TE buffer (100 mM Tris and 4 mM EDTA) and removed from the plate. ATP levels were then measured in the linear range using the ATP Bioluminescence Kit CLS II (Roche, Indianapolis, Ind.) by following the manufacturer's protocol, and results were read by a Perkin-Elmer Victor^2 1420.
Adenine nucleotide levels in primary cortical neuron lysates were determined by HPLC analysis as described by Stocchi, et al. Anal Biochem 167, 181-190 (1987). […]
AMPK activity was determined by performing SAMS peptide assays as described by Witters, et al., J Biol Chem 267, 2864-2867 (1992). […] Immunoprecipitates were then washed and resuspended in 4× assay buffer and kinase activity was assessed by measurement (for 20 min at 30° C.) of the incorporation of ^32P into the synthetic SAMS peptide substrate, HMRSAMSGLHLVKRR, (Princeton Biomolecules). […]

[2] = tested on: primary hypothalamic neurons; assay: ATP measurement in primary hypothalamic neuron cultures; type: cell-based, Sprague-Dawley rats
Experimental: Hypothalami were dissected from E17 Sprague-Dawley rats (Harlan), and dissociated by trypsin (0.125%)-DNA (0.001%) solution and trituration as described by Landree, et al., J. Biol. Chem., 279, 3817-3827. Cells were plated at 6×10^4 on poly-D-lysine coated 96 well plates (Corning Inc.) in neurobasal medium supplemented with B27, 0.5 mM L-glutamine, 1% penicillin-streptomycin (Gibco-BRL). To limit nonneuronal cell proliferation, cells were treated with cytosine arabinoside furanoside (1 μM) on day 4 after plating and 6-8 days-old cells were assayed for ATP. Hypothalamic neurons were lysed in TE (100 mM Tris-HCl, pH 7.4, 4 mM DTA), and ATP levels were measured within the linear range using the ATP BioLuminescence Kit CLSII (Roche) by following the manufacture's recommendation. Data were analyzed by a Perkin-Elmer Victor^2 1420.

[3] = tested on: BALB/c male mice; assay: Measurement of food intake after i.c.v. or i.p. injection; type: in vivo
Experimental: Male BALB/c mice (7-9 weeks) were purchased from Charles River Laboratories (and housed in a controlled-light (12 hr light/12 hr dark cycle) environment (lights on 0200-1400 h) and allowed ad libitum access to standard laboratory chow and water. For fasting, food was withdrawn from cage at the onset of the dark cycle for 24 hr, but ad libitum access to water was allowed.
Mice were implanted with permanent stainless steel cannulae into the lateral ventricle of the brain 0.6 mm caudal to Bregma, 1.2 mm lateral to the midline, and sunk to a depth of 2.2 mm below the surface of the skull. Implanted mice were housed in individual cages and utilized for i.c.v. and i.p. injections as indicated. C75 dissolved in RPMI1640 (Gibco-BRL), AICAR (Toronto Research Chemicals Inc) or compound C (46) (FASgen, Inc.) in saline was injected i.c.v., such that desired dose could be administered in a volume of 2.5 μl, while control groups received vehicle only. Injections were done immediately preceding dark onset and food intake measurements were taken at 1 hr (0-1 hr interval), 3 hr (1-3 hr interval), and 24 hr (3-24 hr interval) after dark onset. C75 i.p./AICAR i.c.v. treatment groups were i.p. injected with 5 mg/kg bodyweight C75 dissolved in […] of glucose-free RPMI 1 hr before the dark onset, followed by 3 μg/2.5 μl saline i.c.v. AICAR immediately preceding the dark onset. Control groups received 200 μl of glucose free RPMI 1 hr before lights off and 2.5 μl of saline. Administration of i.p. compound C (10 or 30 mg/kg bodyweight) or C75 (10 mg/kg bodyweight) was followed by food intake measurement at the same times indicated.

`C=C1C(=O)OC(CCCCCCCC)C1C(=O)O` (stereo not drawn) [C75] was tested, and the “AMPK activity in primary cortical neurons” value [1] was “inactivation of AMPK”, the “ratio of AMP/ATP in primary cortical neurons” value [1] was “decrease in the ratio of AMP/ATP” and the “neuronal ATP levels, % of control” value ([2]; 40 mg/ml C75, 30 min) was 118 % of control. For the same molecule, the “neuronal ATP levels, % of control” value ([2]; 40 mg/ml C75, 2 hr) was 128 % of control, the “reduction in food intake over 24 hr” value ([3]; C75 5 mg i.c.v., p<0.05) was 20.3% and the “food intake at 1 hr, % of control (RPMI/saline)” value ([3]; C75 5 mg/kg bodyweight i.p. 1 hr before dark onset, saline i.c.v., p<0.01) was 37.5 % of control. For the same molecule, the “reduction in food intake over 24 hr” value ([3]; C75 10 mg i.c.v., p<0.01) was 37.7%, the “food intake, % of control” value ([3]; C75 10 mg/kg bodyweight i.p., 0-1 hr) was 8.3 % of control and the “food intake, % of control” value ([3]; C75 10 mg/kg bodyweight i.p., 1-3 hr) was 23.3 % of control. The “food intake, % of control” value ([3]; C75 10 mg/kg bodyweight i.p., 3-24 hr) was 30.1 % of control, the “total 24 hr-food consumption, % of control” value ([3]; C75 10 mg/kg bodyweight i.p., total 24 hr, p<0.001) was 26.3 % of control and the “food intake during the 1-3 and 3-24 hr time intervals” value ([3]; C75 i.c.v., dose-dependent) was “significantly reduced food intake”.
